Where “and” joins values, the source holds several entries; their conditions need not be identical. Identical values can stand only once.
System: brown planthoppers, Nilaparvata lugens
Assay: Field efficacy on brown planthopper in transplanted rice (small-plot trials A-D)
Type: in vivo
Settings: Sulfoxaflor 50 g/ha, Chlorpyrifos 500 g/ha, mixture 50 + 500 g/ha; for % Control: Trial A
Experimental: Applications were made to transplanted rice, Oryza sativa, using standard small-plot efficacy methods. Chemicals were diluted in water and all treatments were applied using a backpack sprayer calibrated to deliver 500 liters of spray per hectare. Experimental plots measured 5 by 10 meters and each treatment was replicated three times in each trial. At the specified intervals after treatment, brown planthoppers, Nilaparvata lugens, were counted in 10 randomly selected hills per plot. Data were transformed to percent control relative to the untreated plots, then subjected to analysis of variance, and means were separated using Tukey's HSD (p=0.1). Expected control was calculated using the method of Colby and compared to observed control. See the Table Section for the results of the Field Trials.

SMILES | % Control (1 DAT, relative to untreated plots) | % Control (3 DAT) | % Control (7 DAT) | % Control (10 DAT) | % Control (15 DAT) | % Control at DAT (Trial B, 1 DAT) | % Control at DAT (Trial B, 3 DAT) | % Control at DAT (Trial B, 7 DAT) | % Control at DAT (Trial B, 10 DAT) | % Control at DAT (Trial B, 15 DAT) | % Control at DAT (Trial C, 1 DAT) | % Control at DAT (Trial C, 3 DAT) | % Control at DAT (Trial C, 7 DAT) | % Control at DAT (Trial C, 10 DAT) | % Control at DAT (Trial C, 15 DAT) | % Control at DAT (Trial D, 1 DAT) | % Control at DAT (Trial D, 7 DAT) | % Control at DAT (Trial D, 10 DAT) | % Control at DAT (Trial D, 15 DAT)
CCOP(=S)(OCC)Oc1nc(Cl)c(Cl)cc1Cl [Chlorpyrifos] | 13.7 bc % and 13.7% | 37.5 b % and 37.5% | 32.4 b % and 32.4% | 7.8 b % and 7.8% | 21.0 b % and 21% | 45.2 ab % and 45.2% | 64.8 b % and 64.8% | 54.0 b % and 54% | 39.8 b % and 39.8% | 57.8 b % and 57.8% | 53.4 ab % and 53.4% | 67.0 b % and 67% | 59.7 b % and 59.7% | 10.5 b % and 10.5% | 37.9 b % and 37.9% | 59.6 c % and 59.6% | 53.8 c % and 53.8% | 18.2 c % and 18.2% | 27.0 c % and 27%
CC(c1ccc(C(F)(F)F)nc1)S(C)(=O)=NC#N (stereo not drawn) [Sulfoxaflor] | – | – | – | 6.8% | – | – | – | – | 48.2% | – | – | – | – | – | – | – | – | – | –

Reference: patent US20120283100A1, “CONTROLLING PLANTHOPPERS” (priority 2011, published 2012)
